From patent US20230212164A1, “ANNULATED 2-AMINO-3-CYANO THIOPHENES AND DERIVATIVES FOR THE TREATMENT OF CANCER” (BOEHRINGER INGELHEIM INTERNATIONAL GMBH, priority 2020, published 2023)
Like-named read-outs stand apart in the source and are kept apart here.

Experiments:
[1] = target: KRASG12-dependent Ba/F3 cells (Homo sapiens, UniProt P01116, G12C, cells depend on it); experiment: Ba/F3 cell model proliferation assay (AlamarBlue, 72 h); assay type: cell-based; settings: Ba/F3 cells transduced with KRASG12C, read-out: IC50 Ba/F3 KRASG12C
Chain of KRASG12-dependent Ba/F3 cells (P01116 whole entry G12C): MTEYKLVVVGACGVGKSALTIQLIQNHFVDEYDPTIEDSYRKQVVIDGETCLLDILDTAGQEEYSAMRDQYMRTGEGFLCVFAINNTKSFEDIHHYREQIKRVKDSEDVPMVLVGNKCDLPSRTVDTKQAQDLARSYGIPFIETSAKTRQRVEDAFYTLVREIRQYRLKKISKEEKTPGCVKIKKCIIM
Protocol: Ba/F3 Cell Model Generation and Proliferation Assay
Plasmids containing KRASG12 mutants were obtained from GeneScript. To generate KRASG12-dependent Ba/F3 models, Ba/F3 cells were transduced with retroviruses containing vectors that harbor KRASG12 isoforms. Platinum-E cells (Cell Biolabs) were used for retrovirus packaging. Retrovirus was added to Ba/F3 cells. To ensure infection, 4 μg/mL polybrene was added and cells were spinfected. […] Cells with an infection efficiency of 10% to 20% were further cultivated and puromycin selection with 1 μg/mL was initiated. As a control, parental Ba/F3 cells were used to show selection status. Selection was considered successful when parental Ba/F3 cells cultures died. To evaluate the transforming potential of KRASG12 mutations, the growth medium was no longer supplemented with IL-3. Ba/F3 cells harboring the empty vector were used as a control. Approximately ten days before conducting the experiments, puromycin was left out.
All treatments were performed in technical duplicates. The assay is run using a fully automated robotic system. Treated cells were incubated for 72 h at 37° C. with 5% CO2.
AlamarBlue™ (ThermoFisher), a viability stain, was added and fluorescence measured in the PerkinElmer Envision HTS Multilabel Reader.

[2] = target: T1, protein-protein interaction between SOS1 and KRAS G12C (Homo sapiens, UniProt P01116, C118S/C51S/C80L/G12C); experiment: KRAS::SOS1 AlphaScreen binding assay
T1 construct: His6 (N)
T1 sequence (P01116 1-169 isoform P01116-2 G12C/C51S/C80L/C118S): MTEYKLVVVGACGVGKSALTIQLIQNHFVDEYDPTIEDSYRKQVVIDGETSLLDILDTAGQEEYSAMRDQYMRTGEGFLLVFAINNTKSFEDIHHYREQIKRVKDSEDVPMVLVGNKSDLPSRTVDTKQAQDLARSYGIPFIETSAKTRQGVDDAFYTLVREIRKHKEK
Protocol: KRAS::SOS1 AlphaScreen Binding Assay
Assay buffer: • 1×PBS • 0.1% BSA • 0.05% Tween 20
AlphaLISA Glutathione Acceptor Beads and AlphaScreen Streptavidin Donor Beads are mixed in assay buffer at a concentration of 10 μg/mL (final assay concentration) each prior to use and kept at room temperature.
Compounds are diluted to a final start concentration of 100 μM and are tested in duplicate. […] For compound a start concentration of 100 μM, 150 nL of compound solution is transferred per well in 11 concentrations in duplicate with serial 1:5 dilutions.
The assay is run using a fully automated robotic system in a darkened room below 100 Lux. 10 μL of KRAS::SOS1 GDP mix is added into columns 1-24 to the 150 nL of compound solution (final dilution in the assay 1:100, final DMSO concentration 1%).
After 30 minutes incubation time 5 μL of bead mix is added into columns 1-23. Plates are kept at room temperature in a darkened incubator. After further 60 minutes incubation, the signal is measured using a PerkinElmer Envision HTS Multilabel Reader using the AlphaScreen specifications from PerkinElmer. Each plate contains the following controls: • diluted DMSO+KRAS::SOS1 GDP mix+bead mix • diluted DMSO+KRAS::SOS1 GDP mix
IC50 values are calculated and analyzed using a 4 parametric logistic model.

[3] = tested on: pERK (Thr202/Tyr204) in NCI-H358 (KRAS G12C mutation); experiment: ERK phosphorylation assay 1 (AlphaLISA SureFire Ultra p-ERK1/2)
Protocol: ERK Phosphorylation Assay
Materials Used for the Assay:
AlphaLISA SureFire Ultra p-ERK1/2 (Thr202/Tyr204) Assay Kit (ALSU-PERK-A500)
The cells are incubated for 1 h at room temperature and then incubated overnight in an incubator at 37° C. and 5% CO2 in a humidified atmosphere. 60 nL compound solution (10 mM DMSO stock solution) is then added using a Labcyte Echo 550 device. […] After 20 minutes of incubation at room temperature with shaking, 6 μL of each lysate sample is transferred to a 384-well Proxiplate and analyzed for pERK (Thr202/Tyr204) with the AlphaLISA SureFire Ultra pERK1/2 (Thr202/Tyr204) Assay Kit. 3 μL Acceptor Mix and 3 μL Donor Mix are added under subdued light and incubated for 2 h at room temperature in the dark, before the signal is measured on a PerkinElmer Envision HTS Multilabel Reader. The raw data were imported into and analyzed with the Boehringer Ingelheim proprietary software MegaLab (curve fitting based on the program PRISM, GraphPad Inc.).

[4] = Homo sapiens, NCI-H358, read-out: IC50 H358 pERK

Row | GI50 [1] [nM] | IC50 ([2]; Table 36) [nM] | IC50 [3, 4] [nM] | IC50 ([3]; read-out: IC50 H358 pERK, ERK phosphorylation assay 1 (values not marked with *), NCI-H358) [nM] | IC50 ([2]; Table 40) [nM] | SMILES
1 | 219 | 53 | 7.3 | – | – | C=CC(=O)N1CCN(c2cc(-c3noc(C4(C)CCCc5sc(N)c(C#N)c54)n3)nc(N3CCN(C)C[C@@H]3CC)c2)CC1 (stereo partly shown) [Ia-15]
2 | 10.2 | 1.8 | – | – | – | C=CC(=O)N1CCN(c2cc(-c3noc([C@@]4(C)CCCc5sc(N)c(C#N)c54)n3)nc(N3CCCN(CC4(C)COC4)C[C@@H]3C)n2)CC1 [Ia-41]
3 | 2.7 | 1.7 | – | – | – | C=CC(=O)N1CCN(c2cc(-c3noc([C@@]4(C)CCCc5sc(N)c(C#N)c54)n3)nc(N3CCCN([C@@H]4CCOC4)C[C@@H]3C)n2)CC1 [Ia-43]
4 | 2.5 | 1.5 | – | – | – | C=CC(=O)N1CCN(c2cc(-c3noc([C@@]4(C)CCCc5sc(N)c(C#N)c54)n3)nc(N3CCCN([C@H]4CCOC4)C[C@@H]3C)n2)CC1 [Ia-44]
5 | 186 | 3 | – | – | – | C=CC(=O)N1CCN(c2cc(-c3noc([C@@]4(C)CCCc5sc(N)c(C#N)c54)n3)nc(OC[C@@H]3CCCN3C)n2)CC1 [Ia-47]
6 | 18.4 | 1.8 | – | – | – | C=CC(=O)N1CCCN(c2cc(-c3noc([C@@]4(C)CCCc5sc(N)c(C#N)c54)n3)nc(O[C@@H](C)[C@@H]3CCCN3C)n2)CC1 [Ia-52]
7 | 254 | 61 | – | – | – | C=CC(=O)N(C)CCOc1cc(-c2noc([C@@]3(C)CCCc4sc(N)c(C#N)c43)n2)nc(N2CCCN(C)C[C@@H]2C)n1 [Ia-74]
8 | 381 | 71 | – | – | – | C=CC(=O)N1CCC(Oc2cc(-c3noc(C4(C)CCCc5sc(N)c(C#N)c54)n3)nc(N3CCN(C)CC3)c2)CC1 (stereo not shown) [Ia-88]
9 | 178 | 16 | – | – | – | C=CC(=O)N1CCC2(CC1)CN(c1cc(-c3noc([C@@]4(C)CCCc5sc(N)c(C#N)c54)n3)nc(N3CCCN(CCCOC)C[C@@H]3C)n1)C2 [Ia-92]
10 | 2290 | 77 | – | – | – | C=CC(=O)N1CC2(CCN(c3cc(-c4noc([C@@]5(C)CCCc6sc(N)c(C#N)c65)n4)nc(N4CCCN(C)C[C@@H]4C)n3)C2)C1 [Ia-94]
11 | 946 | 46 | – | – | – | C=CC(=O)N1CCC2(C1)CN(c1cc(-c3noc([C@@]4(C)CCCc5sc(N)c(C#N)c54)n3)cc(N3CCCN(C)C[C@@H]3C)n1)C2 [Ia-95]
12 | 967 | 43 | – | – | – | C=CC(=O)N1CC2CN(c3cc(-c4noc([C@@]5(C)CCCc6sc(N)c(C#N)c65)n4)nc(N4CCCN(C)C[C@@H]4C)n3)CC2C1 (stereo partly shown) [Ia-97]
13 | 662 | 59 | – | – | – | C=CC(=O)N1CCC2(CCN(c3cc(-c4noc([C@@]5(C)CCCc6sc(N)c(C#N)c65)n4)nc(N4CCCN(CCCOC)C[C@@H]4C)n3)CC2)C1 [Ia-98]
14 | 1040 | 45 | – | – | – | C=CC(=O)N1CC(N2CCN(c3cc(-c4noc([C@@]5(C)CCCc6sc(N)c(C#N)c65)n4)nc(N4CCCN(CCCOC)C[C@@H]4C)n3)CC2)C1 [Ia-99]
15 | 2200 | 84 | – | – | – | C=CC(=O)N1CCN(C2CN(c3cc(-c4noc([C@@]5(C)CCCc6sc(N)c(C#N)c65)n4)nc(N4CCCN(C)C[C@@H]4C)n3)C2)CC1 [Ia-100]
16 | 933 | 44 | – | – | – | C=CC(=O)N1C[C@@H]2CN(c3cc(-c4noc([C@@]5(C)CCCc6sc(N)c(C#N)c65)n4)nc(N4CCCN(C)C[C@@H]4C)n3)[C@@H]2C1 [Ia-101]
17 | – | 418 | 92.5 | – | – | C=CC(=O)N1CCC(Oc2cc(-c3noc(C4(C)CCCc5sc(N)c(C#N)c54)n3)nc(N3CCN(C4CCCC4)CC3)c2)CC1 (stereo not shown) [Ia-111]
18 | – | 73 | 18.5 | – | – | C=CC(=O)N1CC[C@@H](Oc2cc(-c3noc([C@@]4(C)CCCc5sc(N)c(C#N)c54)n3)nc(N3CCN(C)CC3)c2)C1 [Ia-112]
19 | – | 730 | 376 | – | – | C=CC(=O)N1CCN(c2cc(-c3noc(C4(C)CC(F)(F)Cc5sc(N)c(C#N)c54)n3)nc(N3CCN(C)CC3)c2)CC1 (stereo not shown) [Ia-113]
20 | – | 63 | 8.8 | – | – | C=CC(=O)N1CCN(c2cc(-c3noc(C4(C)CCCc5sc(N)c(C#N)c54)n3)nc(N3C[C@@H]4C[C@H]3CN4C3CCCC3)c2)CC1 (stereo partly shown) [Ia-115]
21 | – | 468 | 120 | – | – | C=CC(=O)N1CC[C@H](Oc2cc(-c3noc(C4(C)CCCc5sc(N)c(C#N)c54)n3)nc(N3CCN(C)CC3)c2)C1 (stereo partly shown) [Ia-117]

Row | GI50 [1] [nM] | IC50 ([2]; Table 36) [nM] | IC50 [3, 4] [nM] | IC50 ([3]; read-out: IC50 H358 pERK, ERK phosphorylation assay 1 (values not marked with *), NCI-H358) [nM] | IC50 ([2]; Table 40) [nM] | SMILES
22 | – | 21 | 7.5 | – | – | C=CC(=O)N1CCN(c2cc(OC3CCN(C)CC3)nc(-c3noc(C4(C)CCCc5sc(N)c(C#N)c54)n3)c2)CC1 (stereo not shown) [Ia-118]
23 | – | 405 | 111 | – | – | C=CC(=O)N1CCC(Oc2cc(-c3noc(C4(C)CCC(C)c5sc(N)c(C#N)c54)n3)nc(N3CCN(C)CC3)c2)CC1 (stereo not shown) [Ia-120]
24 | – | 50 | 9.9 | – | – | C=CC(=O)N1CCN(c2cc(-c3noc(C4(C)CCCc5sc(N)c(C#N)c54)n3)nc(N3CCN(CC4CC4)CC3)c2)CC1 (stereo not shown) [Ia-121]
25 | – | 71 | 19.3 | – | – | C=CC(=O)N1CCN(c2cc(-c3noc(C4(C)CCCc5sc(N)c(C#N)c54)n3)nc(N3CCN(C4CCCC4)CC3)c2)CC1 (stereo not shown) [Ia-122]
26 | – | 39 | 9.5 | – | – | C=CC(=O)N1CCN(c2cc(-c3noc(C4(C)CCCc5sc(N)c(C#N)c54)n3)nc(N3CCN(CC)CC3)c2)CC1 (stereo not shown) [Ia-123]
27 | – | 158 | 76.6 | – | – | C=CC(=O)N1CCCN(c2cc(-c3noc(C4(C)CCCc5sc(N)c(C#N)c54)n3)nc(N3CCN(C)CC3)c2)CC1 (stereo not shown) [Ia-124]
28 | – | 232 | 233 | – | – | C=CC(=O)N1CCN(c2cc(-c3noc(C4(C)CCCc5sc(N)c(C#N)c54)n3)nc(N3CCN(CCF)CC3)c2)CC1 (stereo not shown) [Ia-125]
29 | – | 30 | 4.2 | – | – | C=CC(=O)N1CCN(c2cc(-c3noc([C@@]4(C)CCCc5sc(N)c(C#N)c54)n3)nc(N3CCN(CC)CC3)c2)CC1 [Ia-126]
30 | – | 71 | 39.6 | – | – | C=CC(=O)N1CCC(Oc2cc(-c3noc(C4(C)CCCc5sc(N)c(C#N)c54)n3)nc(N3CCN(C)CC3)c2)CC1 (stereo not shown) [Ia-141]
31 | – | 176 | 36.4 | – | – | C=CC(=O)N1CCN(c2cc(OCCCN(C)C)cc(-c3noc(C4(C)CCCc5sc(N)c(C#N)c54)n3)c2)CC1 (stereo not shown) [Ia-142]
32 | – | 340 | 1330 | – | – | C=CC(=O)N1CC2(CCN(c3cc(-c4noc(C5(C)CCCc6sc(N)c(C#N)c65)n4)nc(N4CCN(C)CC4)c3)C2)C1 (stereo not shown) [Ia-143]
33 | – | 647 | 68.7 | – | – | C=CC(=O)N1CCN(c2cc(OCCN3CCCC3)cc(-c3noc(C4(C)CCCc5sc(N)c(C#N)c54)n3)c2)CC1 (stereo not shown) [Ia-144]
34 | – | 377 | 93.5 | – | – | C=CC(=O)N1CCCC(Oc2cc(-c3noc(C4(C)CCCc5sc(N)c(C#N)c54)n3)nc(N3CCN(C)CC3)c2)CC1 (stereo not shown) [Ia-145]
35 | – | 50 | – | 9.9 | – | C=CC(=O)N1CCN(c2cc(-c3noc(C4(C)CCCc5sc(N)c(C#N)c54)n3)nc(N3CCN(CC4CC4)CC3)c2)CC1 (stereo not shown) [Ia-146]
36 | – | 24 | 5.9 | – | – | C=CC(=O)N1CCN(c2cc(-c3noc(C4(C)CCCc5sc(N)c(C#N)c54)n3)nc(N3CCN4CCC[C@H]4C3)c2)CC1 (stereo partly shown) [Ia-148]
37 | – | 47 | 8.6 | – | – | C=CC(=O)N1CCN(c2cc(-c3noc(C4(C)CCCc5sc(N)c(C#N)c54)n3)nc(N3CCN4CCCCC4C3)c2)CC1 (stereo not shown) [Ia-149]
38 | – | 71 | 9.5 | – | – | C=CC(=O)N1CCN(c2cc(-c3noc(C4(C)CCCc5sc(N)c(C#N)c54)n3)nc(N3CCN(C(C)C)C(C)C3)c2)CC1 (stereo not shown) [Ia-150]
39 | – | 1190 | 182 | – | – | C=CC(=O)N(C)c1cccc(-c2cc(-c3noc(C4(C)CCCc5sc(N)c(C#N)c54)n3)nc(N3CCN(C)CC3)c2)c1 (stereo not shown) [Ia-151]
40 | – | 43 | 5.9 | – | – | C=CC(=O)N1CCN(c2cc(-c3noc(C4(C)CCCc5sc(N)c(C#N)c54)n3)nc(N3CCN(CC)C(C)C3)c2)CC1 (stereo not shown) [Ia-152]
41 | – | 31 | 11.6 | – | – | C=CC(=O)N1CCN(c2cc(-c3noc(C4(C)CCCc5sc(N)c(C#N)c54)n3)nc(N3CCN4CCC[C@@H]4C3)c2)CC1 (stereo partly shown) [Ia-153]
42 | – | – | 269 | – | 87 | C=CC(=O)N1CCN(c2cc(-c3noc(C4(C)CCCc5sc(N)c(C#N)c54)n3)nc(N3CCNCC3)c2)CC1 (stereo not shown) [Ia-170]
